Source: patent US20150344540A1, “NOVEL GLP-1 RECEPTOR AGONISTS WITH CHOLESTEROL EFFLUX ACTIVITY” (NOVO NORDISK A/S, priority 2012, published 2015)
Where a SMILES comes first, the peptide text is derived from it. [ ]: non-standard residue; d: D form. Aib = CC(C)(N)C(=O)O

Test system: Mouse monocyte/macrophage cell line, RAW 264.7
Experiment: Cholesterol efflux assay (3H-cholesterol, macrophage cell line)
Format: cell-based
Settings: RAW 264.7, 4 hrs incubation, 0.1% human serum albumin; for 4 h Cholesterol Efflux Emax: ABCA1-mediated efflux; for EC50: read-out: 4 h Cholesterol Efflux EC50, ABCA1-mediated efflux (CPT-cAMP induced minus non-induced)

| Structure (SMILES) | 4 h Cholesterol Efflux Emax [%] | EC50 [nM] |
| --- | --- | --- |
| CC[C@H](C)[C@H](NC(=O)[C@H](Cc1ccccc1)NC(=O)[C@H](CCC(=O)O)NC(=O)[C@H](CCCCN)NC(=O)[C@@H](NC(=O)[C@H](C)NC(=O)[C@H](CCC(=O)O)NC(=O)CNC(=O)[C@H](CCC(=O)O)NC(=O)[C@H](CC(C)C)NC(=O)[C@H](Cc1ccc(O)cc1)NC(=O)[C@H](CO)NC(=O)[C@H](CO)NC(=O)[C@@H](NC(=O)[C@H](CC(=O)O)NC(=O)[C@H](CO)NC(=O)[C@@H](NC(=O)[C@H](Cc1ccccc1)NC(=O)[C@@H](NC(=O)CNC(=O)[C@H](CCC(=O)O)NC(=O)C(C)(C)NC(=O)[C@@H](N)Cc1c[nH]cn1)[C@@H](C)O)[C@@H](C)O)C(C)C)C(C)C)C(=O)N[C@@H](C)C(=O)N[C@@H](Cc1c[nH]c2ccccc12)C(=O)N[C@@H](CC(C)C)C(=O)N[C@H](C(=O)N[C@@H](CCC(=O)O)C(=O)N[C@@H](CCCCN)C(=O)N[C@H](C(=O)N[C@@H](CCCCN)C(=O)N[C@@H](CC(=O)O)C(=O)N[C@@H](Cc1ccccc1)C(=O)N[C@@H](CC(C)C)C(N)=O)C(C)C)C(C)C [Compound 114, [Aib8,Glu23,Val25,Glu34,Lys35,Val36,Lys37]-GLP-1-(7-37)-peptidyl-Asp-Phe-Leu amide] (H-H[Aib]EGTFTSDVSSYLEGEAVKEFIAWLVEKVKDFL-NH2) | 103 | – |
| CC[C@H](C)[C@H](NC(=O)[C@H](Cc1ccccc1)NC(=O)[C@H](CC(=O)O)NC(=O)[C@H](CCCCN)NC(=O)[C@@H](NC(=O)[C@H](C)NC(=O)[C@H](CC(=O)O)NC(=O)CNC(=O)[C@H](CCC(=O)O)NC(=O)[C@H](CC(C)C)NC(=O)[C@H](Cc1ccc(O)cc1)NC(=O)[C@H](CO)NC(=O)[C@H](CO)NC(=O)[C@@H](NC(=O)[C@H](CC(=O)O)NC(=O)[C@H](CO)NC(=O)[C@@H](NC(=O)[C@H](Cc1ccccc1)NC(=O)[C@@H](NC(=O)CNC(=O)[C@H](CCC(=O)O)NC(=O)C(C)(C)NC(=O)[C@@H](N)Cc1c[nH]cn1)[C@@H](C)O)[C@@H](C)O)C(C)C)C(C)C)C(=O)N[C@@H](C)C(=O)N[C@@H](Cc1c[nH]c2ccccc12)C(=O)N[C@@H](CC(C)C)C(=O)N[C@H](C(=O)N[C@@H](CCC(=O)O)C(=O)N[C@@H](CCCCN)C(=O)NC(C)(C)C(=O)N[C@@H](CCCCN)C(=O)N[C@@H](CCC(=O)O)C(=O)N[C@@H](Cc1ccccc1)C(=O)N[C@@H](CC(C)C)C(N)=O)C(C)C [Compound 18, [Aib8,Asp23,Val25,Asp27,Glu34,Lys35,Aib36,Lys37]-GLP-1-(7-37)-peptidyl-Glu-Phe-Leu amide] (H-H[Aib]EGTFTSDVSSYLEGDAVKDFIAWLVEK[Aib]KEFL-NH2) | 89 | – |
| CC[C@H](C)[C@H](NC(=O)[C@H](Cc1ccccc1)NC(=O)[C@H](CCC(=O)O)NC(=O)[C@H](CCCCN)NC(=O)[C@@H](NC(=O)[C@H](C)NC(=O)[C@H](CCC(=O)O)NC(=O)CNC(=O)[C@H](CCC(=O)O)NC(=O)[C@H](CC(C)C)NC(=O)[C@H](Cc1ccc(O)cc1)NC(=O)[C@H](CO)NC(=O)[C@H](CO)NC(=O)[C@@H](NC(=O)[C@H](CC(=O)O)NC(=O)[C@H](CO)NC(=O)[C@@H](NC(=O)[C@H](Cc1ccccc1)NC(=O)[C@@H](NC(=O)CNC(=O)[C@H](CCC(=O)O)NC(=O)C(C)(C)NC(=O)[C@@H](N)Cc1c[nH]cn1)[C@@H](C)O)[C@@H](C)O)C(C)C)C(C)C)C(=O)N[C@@H](C)C(=O)N[C@@H](Cc1c[nH]c2ccccc12)C(=O)N[C@@H](CC(C)C)C(=O)N[C@H](C(=O)N[C@@H](CCC(=O)O)C(=O)N[C@@H](CCCCN)C(=O)NC(C)(C)C(=O)N[C@@H](CCCCN)C(=O)N[C@@H](CCC(=O)O)C(=O)N[C@@H](Cc1ccccc1)C(=O)N[C@@H](CC(C)C)C(=O)N[C@@H](CCC(=O)O)C(=O)O)C(C)C [Compound 100, [Aib8,Glu23,Val25,Glu34,Lys35,Aib36,Lys37]-GLP-1-(7-37)-peptidyl-Glu-Phe-Leu-Glu] | 104 | 690 |
| CC[C@H](C)[C@H](NC(=O)[C@H](Cc1ccccc1)NC(=O)[C@H](CCC(N)=O)NC(=O)[C@H](CCCCN)NC(=O)[C@@H](NC(=O)[C@H](C)NC(=O)[C@H](CCC(N)=O)NC(=O)CNC(=O)[C@H](CCC(=O)O)NC(=O)[C@H](CC(C)C)NC(=O)[C@H](Cc1ccc(O)cc1)NC(=O)[C@H](CO)NC(=O)[C@H](CO)NC(=O)[C@@H](NC(=O)[C@H](CC(=O)O)NC(=O)[C@H](CO)NC(=O)[C@@H](NC(=O)[C@H](Cc1ccccc1)NC(=O)[C@@H](NC(=O)CNC(=O)[C@H](CCC(=O)O)NC(=O)C(C)(C)NC(=O)[C@@H](N)Cc1c[nH]cn1)[C@@H](C)O)[C@@H](C)O)C(C)C)C(C)C)C(=O)N[C@@H](C)C(=O)N[C@@H](Cc1c[nH]c2ccccc12)C(=O)N[C@@H](CC(C)C)C(=O)N[C@H](C(=O)N[C@@H](CC(N)=O)C(=O)N[C@@H](CCCCN)C(=O)NC(C)(C)C(=O)N[C@@H](C)C(=O)N[C@@H](CCC(=O)O)C(=O)N[C@@H](Cc1ccccc1)C(=O)N[C@@H](CC(C)C)C(N)=O)C(C)C [Compound 74] (H-H[Aib]EGTFTSDVSSYLEGQAVKQFIAWLVNK[Aib]AEFL-NH2) | 91 | – |
| CC[C@H](C)[C@H](NC(=O)[C@H](Cc1ccccc1)NC(=O)[C@H](CCC(=O)O)NC(=O)[C@H](CCCCN)NC(=O)[C@@H](NC(=O)[C@H](C)NC(=O)[C@H](CCC(=O)O)NC(=O)CNC(=O)[C@H](CCC(=O)O)NC(=O)[C@H](CC(C)C)NC(=O)[C@H](Cc1ccc(O)cc1)NC(=O)[C@H](CO)NC(=O)[C@H](CO)NC(=O)[C@@H](NC(=O)[C@H](CC(=O)O)NC(=O)[C@H](CO)NC(=O)[C@@H](NC(=O)[C@H](Cc1ccccc1)NC(=O)[C@@H](NC(=O)CNC(=O)[C@H](CCC(=O)O)NC(=O)C(C)(C)NC(=O)[C@@H](N)Cc1c[nH]cn1)[C@@H](C)O)[C@@H](C)O)C(C)C)C(C)C)C(=O)N[C@@H](C)C(=O)N[C@@H](Cc1c[nH]c2ccccc12)C(=O)N[C@@H](CC(C)C)C(=O)N[C@H](C(=O)N[C@@H](CCC(=O)O)C(=O)N[C@@H](CCCCN)C(=O)N[C@@H](CC(C)C)C(=O)N[C@@H](CCCCN)C(=O)N[C@@H](CCC(=O)O)C(=O)N[C@@H](CC(C)C)C(=O)N[C@H](C(N)=O)C(C)C)C(C)C [Compound 20, [Aib8,Glu23,Val25,Glu34,Lys35,Leu36,Lys37]-GLP-1-(7-37)-peptidyl-Glu-Leu-Val amide] (H-H[Aib]EGTFTSDVSSYLEGEAVKEFIAWLVEKLKELV-NH2; N-terminus assumed) | 102 | 560 |
| CC[C@H](C)[C@H](NC(=O)[C@H](Cc1ccccc1)NC(=O)[C@H](CCC(=O)O)NC(=O)[C@H](CCCCN)NC(=O)[C@@H](NC(=O)[C@H](C)NC(=O)[C@H](CCC(=O)O)NC(=O)CNC(=O)[C@H](CCC(=O)O)NC(=O)[C@H](CC(C)C)NC(=O)[C@H](Cc1ccc(O)cc1)NC(=O)[C@H](CO)NC(=O)[C@H](CO)NC(=O)[C@@H](NC(=O)[C@H](CC(=O)O)NC(=O)[C@H](CO)NC(=O)[C@@H](NC(=O)[C@H](Cc1ccccc1)NC(=O)[C@@H](NC(=O)CNC(=O)[C@H](CCC(=O)O)NC(=O)C(C)(C)NC(=O)[C@@H](N)Cc1c[nH]cn1)[C@@H](C)O)[C@@H](C)O)C(C)C)C(C)C)C(=O)N[C@@H](C)C(=O)N[C@@H](Cc1c[nH]c2ccccc12)C(=O)N[C@@H](CC(C)C)C(=O)N[C@H](C(=O)N[C@@H](CCCCN)C(=O)N[C@@H](CCCCN)C(=O)NC(C)(C)C(=O)N[C@@H](CCCCN)C(=O)N[C@@H](CCC(=O)O)C(=O)N[C@@H](Cc1ccccc1)C(=O)N[C@@H](CC(C)C)C(N)=O)C(C)C [Compound 9, [Aib8,Glu23,Val25,Lys35,Aib36,Lys37]-GLP-1-(7-37)-peptidyl-Glu-Phe-Leu amide] (H-H[Aib]EGTFTSDVSSYLEGEAVKEFIAWLVKK[Aib]KEFL-NH2) | 87 | – |
| CC[C@H](C)[C@H](NC(=O)[C@H](Cc1ccccc1)NC(=O)[C@H](CCC(=O)O)NC(=O)[C@H](CCCCN)NC(=O)[C@@H](NC(=O)[C@H](C)NC(=O)[C@H](CCC(=O)O)NC(=O)CNC(=O)[C@H](CCC(=O)O)NC(=O)[C@H](CC(C)C)NC(=O)[C@H](Cc1ccc(O)cc1)NC(=O)[C@H](CO)NC(=O)[C@H](CO)NC(=O)[C@@H](NC(=O)[C@H](CC(=O)O)NC(=O)[C@H](CO)NC(=O)[C@@H](NC(=O)[C@H](Cc1ccccc1)NC(=O)[C@@H](NC(=O)CNC(=O)[C@H](CCC(=O)O)NC(=O)C(C)(C)NC(=O)[C@@H](N)Cc1c[nH]cn1)[C@@H](C)O)[C@@H](C)O)C(C)C)C(C)C)C(=O)N[C@@H](C)C(=O)N[C@@H](Cc1c[nH]c2ccccc12)C(=O)N[C@@H](CC(C)C)C(=O)N[C@H](C(=O)N[C@@H](CCC(=O)O)C(=O)N[C@@H](CCCCN)C(=O)NC(C)(C)C(=O)N[C@@H](CCCCN)C(=O)N[C@@H](CCC(=O)O)C(=O)N[C@@H](Cc1ccccc1)C(=O)N[C@@H](CC(C)C)C(=O)N[C@@H](CCC(=O)O)C(=O)N[C@@H](CCCCN)C(=O)N[C@H](C(=O)N[C@@H](CCCCN)C(=O)N[C@@H](CCC(=O)O)C(=O)N[C@@H](Cc1ccccc1)C(=O)O)C(C)C)C(C)C [Compound 97] | 125 | 410 |
| CC[C@H](C)[C@H](NC(=O)[C@H](Cc1ccccc1)NC(=O)[C@H](CC(C)C)NC(=O)[C@H](CCCNC(=N)N)NC(=O)[C@@H](NC(=O)[C@H](C)NC(=O)[C@H](CCC(=O)O)NC(=O)CNC(=O)[C@H](CCC(=O)O)NC(=O)[C@H](CCSC)NC(=O)[C@H](CCC(N)=O)NC(=O)[C@H](CCCCN)NC(=O)[C@H](CO)NC(=O)[C@H](CC(C)C)NC(=O)[C@H](CC(=O)O)NC(=O)[C@H](CO)NC(=O)[C@@H](NC(=O)[C@H](Cc1ccccc1)NC(=O)[C@@H](NC(=O)CNC(=O)[C@H](CCC(=O)O)NC(=O)C(C)(C)NC(=O)[C@@H](N)Cc1c[nH]cn1)[C@@H](C)O)[C@@H](C)O)C(C)C)C(=O)N[C@@H](CCC(=O)O)C(=O)N[C@@H](Cc1c[nH]c2ccccc12)C(=O)N[C@@H](CC(C)C)C(=O)N[C@@H](CCCCN)C(=O)N[C@@H](CC(N)=O)C(=O)N[C@@H](CCCCN)C(=O)NC(C)(C)C(=O)N[C@@H](CC(C)C)C(=O)N[C@@H](CCC(=O)O)C(=O)N[C@@H](Cc1ccccc1)C(=O)N[C@@H](CC(C)C)C(=O)N[C@@H](CCC(=O)O)C(=O)N[C@@H](CC(C)C)C(=O)N[C@@H](CC(C)C)C(N)=O [Compound 12, [Aib2,Gly16,Lys29,Aib30,Leu31,Glu32,Phe33,Leu34,Glu35,Leu36,Leu371-Exendin-4-(1-37)-peptide amide] (H-H[Aib]EGTFTSDLSKQMEGEAVRLFIEWLKNK[Aib]LEFLELL-NH2; N-terminus assumed) | 86 | – |
